From PMC3813752 (PLoS ONE, 2013)
Read-outs that look alike come from different tables or passages of the source.

Tests used:
human GPR55 = human GPR55 (Homo sapiens, UniProt Q9Y2T6); experiment: β-arrestin recruitment assay (PathHunter), CHO cells expressing GPR55; settings: for inhibition at 10 µM: CHO; for IC50: GPR55 IC50, β-arrestin recruitment, antagonist mode vs. LPI (1 µM); for agonist effect on β-arrestin recruitment at GPR55: test compound 10 µM, related to effect of LPI 1 µM = 100%
human GPR18 [1] = target: T1, human GPR18 (Homo sapiens, UniProt Q14330); experiment: cell-based; settings: for inhibition at 10 µM: CHO, read-out: % inhibition of Δ9-THC (10 µM)-induced β-arrestin recruitment at GPR18, test compound at 10 µM; for IC50: GPR18 IC50, β-arrestin recruitment, antagonist mode vs. Δ9-THC (10 µM)
T1 sequence (Q14330 1-331): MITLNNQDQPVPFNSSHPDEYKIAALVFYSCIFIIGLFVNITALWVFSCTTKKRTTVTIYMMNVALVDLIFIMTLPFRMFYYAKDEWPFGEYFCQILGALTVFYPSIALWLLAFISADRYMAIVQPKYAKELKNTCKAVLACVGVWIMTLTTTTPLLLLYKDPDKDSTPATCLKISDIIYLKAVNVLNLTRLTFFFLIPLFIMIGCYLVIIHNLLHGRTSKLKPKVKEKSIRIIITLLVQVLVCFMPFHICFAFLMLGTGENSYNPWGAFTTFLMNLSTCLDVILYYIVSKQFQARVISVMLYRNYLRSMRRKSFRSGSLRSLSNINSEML

human CB1 receptor = human CB1 receptor (Homo sapiens, UniProt P21554); experiment: biochemical; type: binding; settings: for Ki: membranes of CHO cells expressing human CB1, three independent experiments in duplicates, read-out: Ki CB1, heterologous competition vs. [3H]CP55,940; for inhibition at 10 µM: vs. [3H]CP55,940, read-out: % inhibition of radioligand binding at CB1
human GPR18 [2] = target: T1, human GPR18; settings: test compound 10 µM, related to effect of Δ9-THC 10 µM = 100%
human CB2 receptor = human CB2 receptor (Homo sapiens, UniProt P34972); experiment: Radioligand binding (heterologous competition) vs. [3H]CP55,940 at CB2; settings: for inhibition at 10 µM: read-out: % inhibition of radioligand binding at CB2
[3] = read-out: % inhibition of LPI (1 µM)-induced β-arrestin recruitment at GPR55, test compound at 10 µM
[4] = membranes of CHO cells expressing human CB2, three independent experiments in duplicates, read-out: Ki CB2, heterologous competition vs. [3H]CP55,940
[5] = Ki CB2, heterologous competition vs. [3H]CP55,940, membranes of CHO cells expressing human CB2, three independent experiments in duplicates

Sequence of human CB2 receptor (P34972 whole entry): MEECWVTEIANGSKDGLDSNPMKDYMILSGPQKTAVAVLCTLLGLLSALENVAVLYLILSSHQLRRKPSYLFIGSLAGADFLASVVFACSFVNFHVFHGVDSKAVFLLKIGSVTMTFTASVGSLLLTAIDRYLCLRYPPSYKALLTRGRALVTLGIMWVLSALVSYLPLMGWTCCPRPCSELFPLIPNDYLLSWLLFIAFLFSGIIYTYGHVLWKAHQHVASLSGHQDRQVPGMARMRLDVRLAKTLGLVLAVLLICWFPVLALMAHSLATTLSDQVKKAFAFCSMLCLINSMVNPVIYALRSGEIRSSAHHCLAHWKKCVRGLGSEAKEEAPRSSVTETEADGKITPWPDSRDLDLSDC
Sequence of human GPR55 (Q9Y2T6 whole entry): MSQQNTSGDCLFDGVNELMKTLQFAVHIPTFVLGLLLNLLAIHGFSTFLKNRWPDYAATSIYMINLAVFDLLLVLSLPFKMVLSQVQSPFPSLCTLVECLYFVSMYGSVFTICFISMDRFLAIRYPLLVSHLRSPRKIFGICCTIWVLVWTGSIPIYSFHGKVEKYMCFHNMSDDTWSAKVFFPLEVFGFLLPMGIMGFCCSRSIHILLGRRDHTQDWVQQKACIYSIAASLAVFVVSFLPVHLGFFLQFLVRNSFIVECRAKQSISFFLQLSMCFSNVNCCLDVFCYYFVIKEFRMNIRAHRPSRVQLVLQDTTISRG
Sequence of human CB1 receptor (P21554 whole entry): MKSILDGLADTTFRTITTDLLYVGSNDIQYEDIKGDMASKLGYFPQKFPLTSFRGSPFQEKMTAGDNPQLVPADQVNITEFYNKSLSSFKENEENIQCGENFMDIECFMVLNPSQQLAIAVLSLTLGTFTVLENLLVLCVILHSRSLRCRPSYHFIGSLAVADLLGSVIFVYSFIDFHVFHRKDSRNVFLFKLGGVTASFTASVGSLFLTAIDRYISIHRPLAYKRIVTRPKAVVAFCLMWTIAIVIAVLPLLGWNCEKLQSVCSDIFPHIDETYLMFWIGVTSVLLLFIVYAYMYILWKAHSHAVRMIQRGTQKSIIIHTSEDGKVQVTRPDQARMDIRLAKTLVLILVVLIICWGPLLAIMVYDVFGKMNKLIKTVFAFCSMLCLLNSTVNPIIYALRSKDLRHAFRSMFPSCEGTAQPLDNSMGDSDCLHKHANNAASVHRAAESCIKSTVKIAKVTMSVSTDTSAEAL

## CCCCCc1ccc(O)c(-c2cc(C)ccc2O)c1 [Compound 52]
Human GPR55
  EC50: > 10 µM
  IC50: > 10 µM
  agonist effect on β-arrestin recruitment at GPR55: 9%
Human GPR55; [3]
  inhibition at 10 µM: 0%
Human GPR18 [1]
  EC50: > 10 µM
  inhibition at 10 µM: 45%
  IC50: ~10 µM
Human CB1 receptor
  Ki: 1230 ± 470 nM
Human GPR18 [2]
  agonist effect on β-arrestin recruitment at GPR18: 0%
Human CB2 receptor; [4]
  Ki: 517 ± 101 nM

## CCCCCCc1ccc(O)c(-c2cc(CC)ccc2O)c1 [Compound 57]
Human GPR55
  EC50: > 10 µM
  IC50: > 10 µM
Human GPR55; [3]
  inhibition at 10 µM: 0%
Human GPR18 [1]
  EC50: > 10 µM
  inhibition at 10 µM: 113%
  IC50: 12.5 ± 0.8 µM
Human CB1 receptor
  Ki: 386 ± 29 nM
Human GPR18 [2]
  agonist effect on β-arrestin recruitment at GPR18: 0%
Human CB2 receptor; [5]
  Ki: 83 ± 11.8 nM

## CCCCCCc1ccc(O)c(-c2cc(C)ccc2O)c1 [Compound 53]
Human GPR55
  EC50: > 10 µM
  IC50: > 10 µM
  agonist effect on β-arrestin recruitment at GPR55: 28%
Human GPR55; [3]
  inhibition at 10 µM: 0%
Human GPR18 [1]
  EC50: > 10 µM
  inhibition at 10 µM: 118%
  IC50: 11.5 ± 1.3 µM
Human CB1 receptor
  Ki: 822 ± 224 nM
Human GPR18 [2]
  agonist effect on β-arrestin recruitment at GPR18: 0%
Human CB2 receptor; [4]
  Ki: 273 ± 96 nM

## C=CCc1ccc(O)c(-c2ccc(O)c(CC=C)c2)c1 [Compound 10, honokiol, reference compound]
Human GPR55
  EC50: > 10 µM
  IC50: ~10 µM
  agonist effect on β-arrestin recruitment at GPR55: 27%
Human GPR55; read-out: % inhibition of LPI (1 µM)-induced β-arrestin recruitment at GPR55
  inhibition at 10 µM: 42%
Human GPR18 [1]
  EC50: > 10 µM
  inhibition at 10 µM: 45%
  IC50: ~10 µM
Human GPR18 [2]
  agonist effect on β-arrestin recruitment at GPR18: 0%

## CCCCCCc1ccc(O)c(-c2cc(CCCCCC)ccc2O)c1 [Compound 45]
Human GPR55
  EC50: > 10 µM
  IC50: > 10 µM
  agonist effect on β-arrestin recruitment at GPR55: 0%
Human GPR55; [3]
  inhibition at 10 µM: 0%
Human GPR18 [1]
  EC50: > 10 µM
  inhibition at 10 µM: 127%
  IC50: 11.7 ± 2.8 µM
Human CB1 receptor
  Ki: 4640 ± 580 nM
Human GPR18 [2]
  agonist effect on β-arrestin recruitment at GPR18: 0%
Human CB2 receptor; [4]
  Ki: 1830 ± 190 nM

## CCCCCCc1ccc(O)c(-c2ccccc2O)c1 [Compound 49]
Human GPR55
  EC50: > 10 µM
  IC50: > 10 µM
  agonist effect on β-arrestin recruitment at GPR55: 39%
Human GPR55; [3]
  inhibition at 10 µM: 34%
Human GPR18 [1]
  EC50: > 10 µM
  inhibition at 10 µM: 48%
  IC50: ~10 µM
Human CB1 receptor
  Ki: 6630 ± 5030 nM
Human GPR18 [2]
  agonist effect on β-arrestin recruitment at GPR18: 0%
Human CB2 receptor; [4]
  Ki: 1500 ± 640 nM

## CCc1ccc(O)c(-c2cc(CC)ccc2O)c1 [Compound 42]
Human GPR55
  EC50: > 10 µM
  IC50: > 10 µM
  agonist effect on β-arrestin recruitment at GPR55: 23%
Human GPR55; [3]
  inhibition at 10 µM: 0%
Human GPR18 [1]
  EC50: > 10 µM
  inhibition at 10 µM: 12%
  IC50: > 10 µM
Human CB1 receptor
  Ki: 2130 ± 840 nM
Human GPR18 [2]
  agonist effect on β-arrestin recruitment at GPR18: 6%
Human CB2 receptor; [4]
  Ki: 2870 ± 770 nM

## Oc1ccccc1-c1ccccc1O [Compound 40, 2-(2-hydroxyphenyl)phenol]
Human CB1 receptor
  inhibition at 10 µM: 11%
  Ki: > 1000 nM
Human CB2 receptor; [5]
  Ki: > 1000 nM
Human CB2 receptor
  inhibition at 10 µM: 0%

## CCCc1ccc(O)c(-c2cc(C)ccc2O)c1 [Compound 50]
Human GPR55
  EC50: > 10 µM
  IC50: > 10 µM
  agonist effect on β-arrestin recruitment at GPR55: 26%
Human GPR55; [3]
  inhibition at 10 µM: 4%
Human GPR18 [1]
  EC50: > 10 µM
  inhibition at 10 µM: 21%
  IC50: > 10 µM
Human CB1 receptor
  inhibition at 10 µM: 20%
  Ki: > 1000 nM
Human GPR18 [2]
  agonist effect on β-arrestin recruitment at GPR18: 0%
Human CB2 receptor; [5]
  Ki: 7380 ± 2760 nM

## CCCCc1ccc(O)c(-c2cc(CCC)ccc2O)c1 [Compound 58]
Human GPR55
  EC50: > 10 µM
  IC50: ~10 µM
  agonist effect on β-arrestin recruitment at GPR55: 21%
Human GPR55; [3]
  inhibition at 10 µM: 44%
Human GPR18 [1]
  EC50: > 10 µM
  inhibition at 10 µM: 104%
  IC50: 13.5 ± 1.7 µM
Human CB1 receptor
  Ki: 3610 ± 170 nM
Human GPR18 [2]
  agonist effect on β-arrestin recruitment at GPR18: 0%
Human CB2 receptor; [4]
  Ki: 468 ± 133 nM

## CCCCCc1ccc(O)c(-c2cc(CC)ccc2O)c1 [Compound 56]
Human GPR55
  EC50: > 10 µM
  IC50: > 10 µM
  agonist effect on β-arrestin recruitment at GPR55: 3%
Human GPR55; [3]
  inhibition at 10 µM: 2%
Human GPR18 [1]
  EC50: > 10 µM
  inhibition at 10 µM: 95%
  IC50: 13.6 ± 0.7 µM
Human CB1 receptor
  Ki: 634 ± 297 nM
Human GPR18 [2]
  agonist effect on β-arrestin recruitment at GPR18: 0%
Human CB2 receptor; [4]
  Ki: 161 ± 33 nM

## CCCCCc1ccc(O)c(-c2ccccc2O)c1 [Compound 48]
Human GPR55
  EC50: ~10 µM
  IC50: > 10 µM
  agonist effect on β-arrestin recruitment at GPR55: 42%
Human GPR55; [3]
  inhibition at 10 µM: 25%
Human GPR18 [1]
  EC50: > 10 µM
  inhibition at 10 µM: 18%
  IC50: > 10 µM
Human CB1 receptor
  Ki: 6590 ± 2560 nM
Human GPR18 [2]
  agonist effect on β-arrestin recruitment at GPR18: 0%
Human CB2 receptor; [4]
  Ki: 1160 ± 290 nM

## CCCc1ccc(O)c(-c2ccccc2O)c1 [Compound 46]
Human GPR55
  EC50: > 10 µM
  IC50: > 10 µM
  agonist effect on β-arrestin recruitment at GPR55: 25%
Human GPR55; [3]
  inhibition at 10 µM: 37%
Human GPR18 [1]
  EC50: > 10 µM
  inhibition at 10 µM: 0%
  IC50: > 10 µM
Human CB1 receptor
  inhibition at 10 µM: 45%
Human GPR18 [2]
  agonist effect on β-arrestin recruitment at GPR18: 0%
Human CB2 receptor; at 10 µM, vs. [3H]CP55,940
  inhibition at 10 µM: 49%
Human CB2 receptor; vs. [3H]CP55,940, read-out: Ki CB2
  Ki: ~10000 nM

## CCCCc1ccc(O)c(-c2cc(CC)ccc2O)c1 [Compound 55]
Human GPR55
  EC50: > 10 µM
  IC50: > 10 µM
  agonist effect on β-arrestin recruitment at GPR55: 2%
Human GPR55; [3]
  inhibition at 10 µM: 18%
Human GPR18 [1]
  EC50: > 10 µM
  inhibition at 10 µM: 40%
  IC50: ~10 µM
Human CB1 receptor
  Ki: 5760 ± 2850 nM
Human GPR18 [2]
  agonist effect on β-arrestin recruitment at GPR18: 0%
Human CB2 receptor; from Ki values
  selectivity for CB2 receptors over CB1: ~25 fold
Human CB2 receptor; [4]
  Ki: 235 ± 101 nM

## CCCc1ccc(O)c(-c2cc(C(C)(C)C)ccc2O)c1 [Compound 59]
Human GPR55
  EC50: > 10 µM
  IC50: ~10 µM
  agonist effect on β-arrestin recruitment at GPR55: 0%
Human GPR55; [3]
  inhibition at 10 µM: 54%
Human GPR18 [1]
  EC50: > 10 µM
  inhibition at 10 µM: 54%
  IC50: ~10 µM
Human CB1 receptor
  Ki: 5810 ± 2670 nM
Human GPR18 [2]
  agonist effect on β-arrestin recruitment at GPR18: 0%
Human CB2 receptor; [4]
  Ki: 489 ± 49 nM

## CCCCc1ccc(O)c(-c2ccccc2O)c1 [Compound 47]
Human GPR55
  EC50: > 10 µM
  IC50: > 10 µM
  agonist effect on β-arrestin recruitment at GPR55: 2%
Human GPR55; [3]
  inhibition at 10 µM: 35%
Human GPR18 [1]
  EC50: > 10 µM
  inhibition at 10 µM: 24%
  IC50: > 10 µM
Human CB1 receptor
  inhibition at 10 µM: 40%
  Ki: ~1000 nM
Human GPR18 [2]
  agonist effect on β-arrestin recruitment at GPR18: 0%
Human CB2 receptor; [4]
  Ki: 2030 ± 880 nM
